Measurements taken from the supplement of paper PMC10307832.

Legend:
Assay in all cases: relative viability (nuclei count vs DMSO), 5 days (fraction); higher = more cells survive
[1] = compound: COc1cc(-c2nn([C@H]3CC[C@H](N4CCN(C(C)=O)CC4)CC3)c3ncnc(N)c23)ccc1NC(=O)c1cc2ccccc2n1C + CC(=O)Nc1cccc(-n2c(=O)n(C3CC3)c(=O)c3c(Nc4ccc(I)cc4F)n(C)c(=O)c(C)c32)c1 [Trametinib] (partner 0.02 µM)
In short: (§1)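 Relative viability is defined as nuclei in treated wells over nuclei in vehicle wells. Duplicate plates were run and medians reported. Lung cancer cell lines in 1536-well plates were dosed by pin tool one day after seeding, with one drug or with a fixed anchor-drug dose plus five library-drug doses (not always all listed) in √10 steps, and nuclei were counted after 5 days.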

[2] = compound: CO[C@@H]1[C@H](N(C)C(=O)c2ccccc2)C[C@H]2O[C@]1(C)n1c3ccccc3c3c4c(c5c6ccccc6n2c5c31)C(=O)NC4 [Midostaurin] + C[C@@H](Oc1cc(-c2cnn(C3CCNCC3)c2)cnc1N)c1c(Cl)ccc(F)c1Cl [Crizotinib] (partner 1 µM)
In short: as §1

[3] = compound: COc1cc(-c2nn([C@H]3CC[C@H](N4CCN(C(C)=O)CC4)CC3)c3ncnc(N)c23)ccc1NC(=O)c1cc2ccccc2n1C + Nc1nc2[nH]cc(CCc3ccc(C(=O)N[C@@H](CCC(=O)O)C(=O)O)cc3)c2c(=O)[nH]1 [Pemetrexed] (partner 0.2 µM)
In short: as §1

[4] = compound: CO[C@@H]1[C@H](N(C)C(=O)c2ccccc2)C[C@H]2O[C@]1(C)n1c3ccccc3c3c4c(c5c6ccccc6n2c5c31)C(=O)NC4 [Midostaurin] + COc1cc2c(Oc3ccc(NC(=O)C4(C(=O)Nc5ccc(F)cc5)CC4)cc3F)ccnc2cc1OCCCN1CCOCC1 [Foretinib] (partner 0.25 µM)
In short: as §1

[5] = compound: COc1cc(-c2nn([C@H]3CC[C@H](N4CCN(C(C)=O)CC4)CC3)c3ncnc(N)c23)ccc1NC(=O)c1cc2ccccc2n1C + CS(=O)(=O)N1CCN(Cc2cc3nc(-c4cccc5[nH]ncc45)nc(N4CCOCC4)c3s2)CC1 [Pictilisib] (partner 1 µM)
In short: as §1

Row | Cell Line | relative viability ([1]; first compound 0.0128 µM) | relative viability ([1]; first compound 0.04048 µM) | relative viability ([1]; first compound 0.128 µM) | relative viability ([1]; first compound 1.28 µM) | relative viability ([2]; first compound 0.01 µM) | relative viability ([2]; first compound 0.03162 µM) | relative viability ([2]; first compound 0.1 µM) | relative viability ([2]; first compound 0.3162 µM) | relative viability ([3]; first compound 0.0128 µM) | relative viability ([3]; first compound 0.04048 µM) | relative viability ([3]; first compound 0.128 µM) | relative viability ([3]; first compound 1.28 µM) | relative viability ([4]; first compound 0.01 µM) | relative viability ([4]; first compound 0.03162 µM) | relative viability ([4]; first compound 0.1 µM) | relative viability ([4]; first compound 0.3162 µM) | relative viability ([5]; first compound 0.0128 µM) | relative viability ([5]; first compound 0.04048 µM) | relative viability ([5]; first compound 0.128 µM) | relative viability ([5]; first compound 1.28 µM)
1 | RERF-LC-KJ | 0.844 | 0.818 | 0.867 | 0.749 | 0.892 | 0.764 | 0.813 | 0.811 | 0.489 | 0.494 | 0.47 | 0.46 | 0.915 | 0.866 | 0.939 | 0.936 | 0.572 | 0.557 | 1.11 | 0.538
2 | NCI-H1650 | 0.489 | 0.448 | 0.586 | 0.452 | 1.06 | 1.06 | 1.03 | 0.702 | 0.332 | 0.384 | 0.348 | 0.468 | 1.16 | 1.11 | 0.911 | 1.19 | 0.548 | 0.651 | 0.513 | 0.547
3 | BEN | 1.07 | 0.97 | 0.953 | 0.838 | 1.12 | 0.889 | 1.17 | 0.935 | 0.686 | 0.814 | 0.871 | 0.664 | 0.719 | 0.803 | 0.966 | 0.667 | 0.559 | 0.54 | 0.58 | 0.432
4 | EMC-BAC-2 | 0.901 | 0.537 | 0.834 | 1.02 | 0.704 | 0.754 | 0.647 | 0.696 | 0.445 | 0.557 | 0.426 | 0.493 | 0.961 | 0.828 | 0.822 | 0.708 | 0.547 | 0.501 | 0.504 | 0.494
